Test results as given in patent publication US5158947A, “Condensed heterocyclic compounds and psychopharmaceutical composition containing same” (Suntory Limited, priority 1990, dated 1992).
pIC50: −log10 of the molar value.

Assays:
[1] = system: locomotor hyperactivity induced by amfoneric acid; assay: Inhibitory activity against locomotor hyperactivity induced by amfoneric acid; format: in vivo, ddy male mouse; conditions: Mus musculus, ip, 100 min, amfoneric acid 2.5 mg/kg s.c., total count over 100 minutes, read-out: Inhibition Rate; for inhibition in vivo at 30 mg/kg: 30 mg/kg intraperitoneal; for inhibition in vivo at 10 mg/kg: 10 mg/kg intraperitoneal, * 0.05 > P > 0.01, ** 0.01 > P > 0.001
Procedure: The inhibitory activity against locomotor hyperactivity induced by amfoneric acid of the present compounds were determined according to a method described in the "Journal of Pharmacology & Experimental Therapeuties," Vol. 239, 124-131 (1986) by R. T. Matthews et al.
That is, to a ddy male mouse having a body weight of about 25g, were simultaneously administered amfoneric acid (2.5 mg/kg, subcutaneous administration) and the present compound (intraperitoneal administration),and the amount of movement was determined using an apparatus for determining the amount of movement of a mouse. The amount of movement was determined over 100 minutes, and the test of significance thereof was effected for the total count number for 100 minutes by a Manwhitnee test. The value was indicated as the inhibition rate based, as a control, upon the group to which 2.5 mg/kg of amfoneric acid was subcutaneously administered.

[2] = molecular target: T1, σ-receptor (Rattus norvegicus, UniProt Q9R0C9); assay: Affinity to σ-receptor ([3H]3PPP binding, rat cerebra without cerebellum); set-up: species or system Wistar male rats; conditions: 3 nM [3H]3PPP, 25° C., 90 minutes; non-specific: 1 μM haloperidol; read-out: Affinity to δ-Receptor IC50
T1 construct: all of the cerebra, other than the cerebellum, of Wistar male rats; from tissue; host or cells: rat brain (cerebra without cerebellum), crude washed membranes
T1 sequence (Q9R0C9 whole entry): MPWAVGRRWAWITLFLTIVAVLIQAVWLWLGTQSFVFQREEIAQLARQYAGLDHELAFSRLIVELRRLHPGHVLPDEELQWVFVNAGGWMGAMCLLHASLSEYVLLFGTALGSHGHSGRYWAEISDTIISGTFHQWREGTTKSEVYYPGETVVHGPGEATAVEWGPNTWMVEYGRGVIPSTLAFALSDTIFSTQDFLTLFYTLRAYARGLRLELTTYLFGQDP
Procedure: The affinities of the present compounds to the […] were determined according to a method described in the "Molecular Pharmacology," Vol. 32, 772-784 (1987).
That is, 50 mM of a Tris-HCl (pH=7.7) buffer solution was added to all of the cerebra, other than the cerebellum, of Wistar male rats, followed by homogenizing for […] in a Polytson® and then centrifugally separating same at 35000 G for 10 minutes. To the resultant precipitate was added the same buffer solution as used above, and the homogenizing and the centrafugalization were repeated. This procedure was repeated once more, and to the final precipitate was added a 50 mM Tris -HCl (pH=8.0) buffer solution and the receptor having a binding capability. In the binding experiments, 3nM [^3 H] propyl-3-(3-hydroxyphenyl) piperidine (i.e., [^3 H]3PPP) was used, and as a non-specific ligand, 1 μM haloperidol was used. After incubation at 25° C. for 90 minutes, the bound ligand was recovered by filtration and the determination was carried out. The filter used was a Whatmen GF/B filter treated with 0.5% polyethylene imine.

[3] = system: catalepsy; assay: Catalepsy; format: in vivo, ddy male mice; conditions: scored after 30, 60, 90, and 120 minutes
Procedure: To ddy male mice having a body weight of about 25 g was intraperitoneally administered the present compound and the catalepsy was determined after 30, 60, 90, and 120 minutes therefrom. The score of the catalepsy was as follows.
The forelegs of the mouse were placed on an aupper edge of a 5.5 cm height box and the time until the more fulled its forelegs down from the box or the mouse jumped up onto the top of the box was measured and the score was determined based upon the following standard.

SMILES	pIC50 [2]	other results
OC(CCCN1CCN(c2ncc(F)cn2)CC1)c1ccc(F)cc1 (centres unmarked) [BMY14802, reference compound]		inhibition in vivo at 30 mg/kg ([1]; * 0.05 > P > 0.01): 51%
O=C1c2ccccc2OCCN1CCCCN1CCC(c2ccccc2)CC1 [Example 1, 4-(4-(4-phenyl)-1-piperidinyl)butyl-2,3,4,5-tetrahydro-1,4-benzoxazepin-5-one]	7.85	
O=C1c2ccccc2OCCN1CCCCN1CCC(c2ccc(Cl)cc2)CC1 [Example 2, 4-(4-(4-(4-chlorophenyl)-1-piperidinyl)butyl)-2,3,4,5-tetrahydro-1,4-benzoxazepin-5-one]	7.93	
O=C1COc2ccccc2CN1CCCCN1CCC(c2ccccc2)CC1 [Example 4]	8.04	
O=C1COc2ccccc2CN1CCCCN1CCC(c2ccc(Cl)cc2)CC1 [Example 5]	7.73	
O=C1COc2ccccc2C(=O)N1CCCCN1CCC(c2ccccc2)CC1 [Example 8, 4-(4-(4-phenyl)-1-piperidinyl)butyl-2,3,4,5-tetrahydro-1,4-benzoxazepine-3,5-dione]	8.18	Catalepsy ([3]; 30 mg/kg intraperitoneal): - (less than 1); inhibition in vivo at 30 mg/kg ([1]; * 0.05 > P > 0.01): 73%
O=C1COc2ccccc2C(=O)N1CCCCN1CCC(c2ccc(Cl)cc2)CC1 [Example 9, 4-(4-(4-(4-chlorophenyl)-1-piperidinyl)butyl)-2,3,4,5-tetrahydro-1,4-benzoxazepine-3,5-dione]	8.33	
O=C1COc2ccccc2C(=O)N1CCCCN1CC=C(c2ccccc2)CC1 [Example 12, 4-(4-(4-phenyl-1,2,3,6-tetrahydro)-1-pyridyl)butyl-2,3,4,5-tetrahydro-1,4-benzoxazepine-3,5-dione]	7.92	
O=C1COc2ccccc2C(=O)N1CCCCN1CCC(c2ccccn2)CC1 [Example 14, 4-(4-(4-(2-pyridyl)-1-piperidinyl)butyl)-2,3,4,5-tetrahydro-1,4-benzoxazepine-3,5-dione]	7.75	
O=C1CSc2ccccc2C(=O)N1CCCCN1CCC(c2ccccc2)CC1 [Example 17, 4-(4-(4-phenyl)-1-piperidinyl)butyl-2,3,4,5-tetrahydro-1,4-benzothiazepine-3,5-dione]	8.40	
O=C1CNc2ccccc2C(=O)N1CCCCN1CCC(c2ccccc2)CC1 [Example 18, 4-(4-(4-phenyl)-1-piperidinyl)butyl-2,3,4,5-tetrahydro-1,4-benzodiazepine-3,5-dione]	7.85	Catalepsy ([3]; 10 mg/kg intraperitoneal): - (less than 1); inhibition in vivo at 1 mg/kg ([1]; 1 mg/kg intraperitoneal, * 0.05 > P > 0.01): 65%; inhibition in vivo at 10 mg/kg [1]: 90%
O=C1CNc2ccccc2C(=O)N1CCCCN1CCC(c2ccc(Cl)cc2)CC1 [Example 19]	7.79	Catalepsy ([3]; 20 mg/kg intraperitoneal): - (less than 1); inhibition in vivo at 10 mg/kg [1]: 53%
CN1CC(=O)N(CCCCN2CCC(c3ccccc3)CC2)C(=O)c2ccccc21 [Example 21, 1-methyl-4-(4-(4-phenyl) -1-piperidinyl)butyl-2,3,4,5-tetrahydro-1,4-benzodiazepine-3,5-dione]	7.86	Catalepsy ([3]; 30 mg/kg intraperitoneal): - (less than 1)
O=C1CCc2ccccc2C(=O)N1CCCCN1CCC(c2ccccc2)CC1 [Example 22, 2-(4-(4-phenyl)-1-piperidinyl)butyl-1,3,4,5-tetrahydro-2-benzazepine-1,3-dione]	8.43	inhibition in vivo at 10 mg/kg [1]: 52%
O=C1CCc2ccccc2C(=O)N1CCCCN1CCC(c2ccc(Cl)cc2)CC1 [Example 23, 2-(4-(4-(4-chlorophenyl)-1-piperidinyl)butyl)-1,3,4,5-tetrahydro-2-benzazepine-1,3-dione]	8.19	
O=C1c2ccccc2OCCN1CCCCCN1CCC(c2ccccc2)CC1 [Example 26, 4-(5-(4-phenyl)-1-piperidinyl)pentyl-2,3,4,5-tetrahydro-1,4-benzoxazepin-5-one]	7.96	Catalepsy ([3]; 30 mg/kg intraperitoneal): - (less than 1); inhibition in vivo at 10 mg/kg [1]: 65%
O=C1c2ccccc2OCCN1CCCCCN1CCC(c2ccc(Cl)cc2)CC1 [Example 27, 4-(5-(4-(4-chlorochenyl)1-piperidinyl)pentyl)-2,3,4,5-tetrahydro-1,4-benzoxazepin-5-one]	7.97	
O=C1COc2ccccc2CN1CCCCCN1CCC(c2ccccc2)CC1 [Example 28, 4-(5-(4-phenyl)-1-piperidinyl)pentyl-2,3,4,5-tetrahydro-1,4-benzoxazepin-3-one]	8.10	
O=C1COc2ccccc2CN1CCCCCN1CCC(c2ccc(Cl)cc2)CC1 [Example 29]	7.99	Catalepsy ([3]; 30 mg/kg intraperitoneal): - (less than 1); inhibition in vivo at 10 mg/kg [1]: 60%
O=C1COc2ccccc2C(=O)N1CCCCCN1CCC(c2ccccc2)CC1 [Example 30, 4-(5-(4-phenyl)-1-piperidinyl)pentyl-2,3,4,5-tetrahydro-1,4-benzoxazepine-3,5-dione]	8.33	Catalepsy ([3]; 30 mg/kg intraperitoneal): - (less than 1); inhibition in vivo at 30 mg/kg ([1]; * 0.05 > P > 0.01): 70%
O=C1COc2ccccc2C(=O)N1CCCCCN1CCC(c2ccc(Cl)cc2)CC1 [Example 31]	8.11	Catalepsy ([3]; 30 mg/kg intraperitoneal): - (less than 1)
O=C1CSc2ccccc2C(=O)N1CCCCCN1CCC(c2ccccc2)CC1 [Example 32, 4-(5-(4-phenyl)-1-piperidinyl)pentyl-2,3,4,5-tetrahydro-1,4-benzothiazepine-3,5-dione]	8.40	
O=C1CSc2ccccc2C(=O)N1CCCCCN1CCC(c2ccc(Cl)cc2)CC1 [Example 33]	7.75	
O=C1CCc2ccccc2C(=O)N1CCCCCN1CCC(c2ccccc2)CC1 [Example 36, 2-(5-(4-phenyl)-1-piperidinyl)pentyl-1,3,4,5-tetrahydro-2-benzazepine-1,3-dione]	8.44	
O=C1CCc2ccccc2C(=O)N1CCCCCN1CCC(c2ccc(Cl)cc2)CC1 [Example 37, 2-(5-(4-(4-chlorophenyl)-1-piperidinyl)pentyl)-1,3,4,5-tetrahydro-2-benzazepine-1,3-dione]	8.05	Catalepsy ([3]; 30 mg/kg intraperitoneal): - (less than 1); inhibition in vivo at 10 mg/kg [1]: 74%
O=C(CCCN1CCC(O)(c2ccc(Cl)cc2)CC1)c1ccc(F)cc1 [Haloperidol, reference compound]		Catalepsy ([3]; 0.1 mg/kg intraperitoneal, control): ++ (more than 2 but less than 3)
